Measurements published in ChEMBL document CHEMBL1138973, “Opiate receptor binding properties of morphine-, dihydromorphine-, and codeine 6-O-sulfate ester congeners” (Bioorg Med Chem Lett, 2006).

What was measured:
Mu-type opioid receptor = Mu-type opioid receptor (Cavia porcellus, UniProt P97266); assay: Displacement of radiolabeled DAMGO from mu opioid receptor in Hartley guinea pig brain
[1] = target: Kappa-type opioid receptor (Cavia porcellus, UniProt P41144); assay: Displacement of radiolabeled U69593 from kappa1 opioid receptor in Hartley guinea pig brain
[2] = Plasma half life in rat; format: ADME, organism-based

Chain of Mu-type opioid receptor (P97266 whole entry): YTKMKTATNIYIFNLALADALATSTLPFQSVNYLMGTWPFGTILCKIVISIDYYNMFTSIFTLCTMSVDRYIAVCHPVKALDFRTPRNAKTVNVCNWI
Chain of Kappa-type opioid receptor (P41144 whole entry): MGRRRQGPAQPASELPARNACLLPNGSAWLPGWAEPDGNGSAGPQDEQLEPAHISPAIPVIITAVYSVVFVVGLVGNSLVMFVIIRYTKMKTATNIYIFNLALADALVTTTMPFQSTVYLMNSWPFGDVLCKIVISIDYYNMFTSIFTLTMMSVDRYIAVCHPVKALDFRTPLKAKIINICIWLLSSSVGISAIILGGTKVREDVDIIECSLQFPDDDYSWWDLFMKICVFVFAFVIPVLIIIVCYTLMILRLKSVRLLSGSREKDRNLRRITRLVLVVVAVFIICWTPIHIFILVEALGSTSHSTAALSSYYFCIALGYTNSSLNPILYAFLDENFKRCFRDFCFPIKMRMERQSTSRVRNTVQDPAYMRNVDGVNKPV

Row | Compound | Ki (Mu-type opioid receptor) [nM] | Ki [1] [nM] | half-life [2] [h]
1 | CN1CC[C@]23c4c5ccc(OS(=O)(=O)O)c4O[C@H]2[C@@H](O)C=C[C@H]3[C@H]1C5 | 101 | > 10000 | 
2 | COc1ccc2c3c1O[C@H]1[C@@H](OS(=O)(=O)O)CC[C@H]4[C@@H](C2)N(C)CC[C@@]341 | 196 | > 10000 | 
3 | COc1ccc2c3c1O[C@H]1[C@@H](OS(=O)(=O)O)C=C[C@H]4[C@@H](C2)N(C)CC[C@@]341 | 38.7 | > 10000 | 
4 | CN1CC[C@]23c4c5ccc(O)c4O[C@H]2[C@@H](OS(=O)(=O)O)C=C[C@H]3[C@H]1C5 | 0.9 |  | 
5 | CC1(C)SSC(C)(C)[C@@H](NC(=O)[C@@H](N)Cc2ccc(O)cc2)C(=O)NCC(=O)N[C@@H](Cc2ccc(Cl)cc2)C(=O)N[C@H]1C(=O)O |  | > 10000 | 
6 | CN1CC[C@]23c4c5ccc(OC(=O)c6ccccc6)c4O[C@H]2[C@@H](OS(=O)(=O)O)C=C[C@H]3[C@H]1C5 | 36.9 | > 10000 | 
7 | C[N+]1(C)CC[C@]23c4c5ccc(OC(=O)c6ccccc6)c4O[C@H]2[C@@H](OS(=O)(=O)[O-])C=C[C@H]3[C@H]1C5 | 444 | > 10000 | 
8 | CC(C)C(=O)Oc1ccc2c3c1O[C@H]1[C@@H](OS(=O)(=O)O)C=C[C@H]4[C@@H](C2)N(C)CC[C@@]341 | 19.8 |  | 
9 | CN1CC[C@]23c4c5ccc(OC(=O)C(C)(C)C)c4O[C@H]2[C@@H](OS(=O)(=O)O)C=C[C@H]3[C@H]1C5 | 0.7 |  | 
10 | CN1CC[C@]23c4c5ccc(OC(=O)c6ccccc6)c4O[C@H]2[C@@H](OS(=O)(=O)O)CC[C@H]3[C@H]1C5 | 61.8 | > 10000 | 
11 | CC(=O)Oc1ccc2c3c1O[C@H]1[C@@H](OS(=O)(=O)O)C=C[C@H]4[C@@H](C2)N(C)CC[C@@]341 | 0.8 |  | > 1
12 | C=CCN1CCC23c4c5ccc(O)c4O[C@@H]2/C(=N/NC(=O)c2ccccc2)CCC3(O)C1C5 (some centres undefined) | 0.2 | 0.4 | 
13 | CC(=O)Oc1ccc2c3c1O[C@H]1[C@@H](OS(=O)(=O)[O-])C=C[C@H]4[C@@H](C2)[N+](C)(C)CC[C@@]341 | 34.2 | > 10000 | > 1
14 | CCC(=O)Oc1ccc2c3c1O[C@H]1[C@@H](OS(=O)(=O)O)C=C[C@H]4[C@@H](C2)N(C)CC[C@@]341 | 0.6 |  | 
15 | CN1CC[C@]23c4c5ccc(O)c4O[C@H]2[C@@H](OS(=O)(=O)O)CC[C@H]3[C@H]1C5 | 1.5 | 3130 | 
16 | CC(=O)Oc1ccc2c3c1O[C@H]1[C@@H](OS(=O)(=O)O)CC[C@H]4[C@@H](C2)N(C)CC[C@@]341 | 13.7 | > 10000 | > 1
